Source: patent US20230060873A1, “COMPOUNDS AND METHODS FOR FORMING ION CHANNELS IN BIOLOGICAL MEMBRANES” (Washington University, priority 2021, published 2023)

Tests used:
B. subtilis membrane = assay: DiSC3(5) depolarization assay, lariat ethers; assay type: cell-based, Bacillus subtilis; details: 2 μM compound; 60 mM KCl, NaCl or NMDG-Cl; NMDG-MeSO3 solution; 25° C
Description: Dialkylated lariat ethers LEC6-LEC14 were then tested for their ability to depolarize a B. subtilis membrane using the fluorescent dye 3,3-dipropylthiadicarbocyanine (DiSC3(5)), which undergoes membrane voltage-dependent partitioning between the intracellular and the extracellular medium. FIGS. 23-31 show the time course of the DiSC3(5) fluorescence due to the activity of dialkylated lariat ethers with alkyl chains 6 to 14 carbons in length. The experiment was performed in a NMDG-MeSO3 solution (100 mM NMDG, 10 mM HEPES, pH adjusted to 7.4 with methanesulfonic acid). The events are: t1, addition of dye; t2, addition of B. subtilis; t3, addition of a 2 M KCl or a 2 M NMDG-Cl solution up to a final concentration of 60 mM; t4, addition of dialkylated lariat ether up to 2 μM. Control experiments were performed that were similar to the two previously described experiments, with the exception that additional NMDG-MeSO3 solution without cells was added at timepoint t2. The experiments were normalized relative to the final fluorescence intensity in the control experiments, as described below.
To conduct the experiments shown in FIGS. 23-31, a 2-mL liquid culture of B. subtilis cells was grown at 37° C. in LB media until OD600=0.600, and then collected by centrifugation at 2000 rpm during 3 min. The bacteria were washed once in NMDG-MeSO3 solution (100 mM NMDG, 10 mM HEPES, pH adjusted to 7.4 with methanesulfonic acid) or dextrose solution (200 mM dextrose, 10 mM Tris, pH adjusted to 7.4 with HCl) depending on the experiment. The centrifugation step was repeated and the bacteria were resuspended until OD600=1.0 in the same solution. The working dye solution was a 200 μM solution of DiSC3(5) (3,3′-dipropylthiadicarbocyanine iodide; Tokyo Chemical Industry) in DMSO. […] After 150 sec (timepoint t3, 250 sec) the fluorescence stabilized to a minimum intensity and 100 μL of 2M NMDG-Cl, 2M NaCl or 2 M KCl solution was added to reach a about 60 mM final concentration of the salt. […] Fluorescence intensity was recorded each second using a Horiba Fluoromax 4 spectrometer (excitation wavelength=640 nm; emission wavelength=670 nm). […] To normalize the fluorescence, experiments in the same conditions but without adding bacteria were performed, normalization was done by dividing the fluorescence by the final fluorescence level of these experiments.
Cell hyperpolarization (more negatively charged inside the cell) results in an uptake of the dye, while cell membrane depolarization (more positively charged inside the cell) results in a release of the dye. The accumulation of the dye in the interior of the cell can be detected by a decrease in fluorescence due to self-quenching, which enables the dye to be utilized as an indirect reporter of changes in cell membrane voltage. […]

B. subtilis cells = assay: Lactate dehydrogenase release (resofurin fluorescence), MAcBCE/MAkBCE and controls; assay type: cell-based, Bacillus subtilis; details: 37° C, potassium lactate/NAD+ solution
Description: A 2 mL liquid culture of transformed B. subtilis cells was grown at 37° C. in LB media supplemented with […] kanamycin, until OD600=0.6. Cells were collected by centrifugation at 2000 rpm over 3 min. The bacterial pellet was washed twice in lactate/NAD^+ solution (95 mM potassium lactate, 10 mM nicotinamide adenine dinucleotide (NAD^+), 10 mM HEPES, pH adjusted to 7.4 with KOH). After the last centrifugation step, the bacteria were resuspended until OD600=1.0 in the lactate/NAD^+ solution, then diluted 100× in the same solution. The working fluorophore solution was a 1 mM of resazurin sodium salt (Alfa Cesar) in water. The experiment was started with 3 mL of lactate/NAD^+ solution in a quartz cuvette, then 3.1 μL of resazurin solution was added (timepoint t1, 50 sec) for a 1 μM final concentration, followed by the addition of 100 μL of the diluted B. subtilis suspension (timepoint t2, 100 sec). After 150 sec (timepoint t3, 250 sec), 10 μL of diaphorase (Worthinton Biochemical Corporation) 10 mg/mL solution was added. The final step involved the addition of 0.62 μL of a 10 mM stock solution of dialkylated diaza lariat ether (LEC10) in TFE (timepoint t4, 400 sec), for a final LEC10 concentration of 2 μM; or 3.1 μL of a 2 mM stock solution of valinomycin in DMSO, for a final valinomycin concentration of 2 μM; or 3.1 μL of a 20 mg/mL stock solution of lysozyme in lactate/NAD^+ solution, for a final lysozyme concentration of 20 μg/mL; or 3.1 μL of 10 mM stock solution of each MAcBCE or MAkBCE compounds in TFE, for final concentrations of 10 μM. Fluorescence intensity was recorded each second using a Horiba Fluoromax 4 spectrometer (λexcitation=550 nm; λemission=583 nm). […] To normalize, the fluorescence intensity was divided by the fluorescence level just before timepoint t4. […]
Experiments were repeated at least three times per condition. To normalize, the fluorescence intensity was divided by the fluorescence level just before timepoint t4.

Compound | relative DiSC3(5) release in the presence of different cations (B. subtilis membrane) | resofurin fluorescence (LDH release) (B. subtilis cells; 2 μM) | resofurin fluorescence (LDH release) (B. subtilis cells; 20 μg/mL)
CC(C)[C@@H]1NC(=O)[C@H](C)OC(=O)[C@@H](C(C)C)NC(=O)[C@@H](C(C)C)OC(=O)[C@H](C(C)C)NC(=O)[C@H](C)OC(=O)[C@@H](C(C)C)NC(=O)[C@@H](C(C)C)OC(=O)[C@H](C(C)C)NC(=O)[C@H](C)OC(=O)[C@@H](C(C)C)NC(=O)[C@@H](C(C)C)OC1=O [valinomycin] | only when K^+ was added | no effect | –
lysozyme | – | – | increase in the resofurin fluorescence levels
